# Laboratory results as given in ChEMBL document CHEMBL1795340, “A discovery of novel Mycobacterium tuberculosis pantothenate synthetase inhibitors based on the molecular mechanism of actinomycin D inhibition” (Bioorg Med Chem Lett, 2011).
# How the values were obtained:
# [1] = system: Mycobacterium tuberculosis; experiment: Antimycobacterial activity against rifampin and isoniazid-resistant Mycobacterium tuberculosis; assay type: functional
# [2] = system: Mycobacterium tuberculosis; experiment: Antimycobacterial activity against drug-resistant Mycobacterium tuberculosis clinical isolate; assay type: functional
smiles,measurement,setting,value
COC(=O)c1cc2c(OCc3ccccc3)cc(N)cc2[nH]1,MIC,[1],54 µM
same,MIC,[2],54 µM
